This is an account of results in PMC7587356, “High-Throughput Screening for Inhibitors of the SARS-CoV-2 Protease Using a FRET-Biosensor” (Molecules, 2020).

This experiment deals with SARS-CoV-2 3CLpro (Severe acute respiratory syndrome coronavirus 2, UniProt P0DTD1). Briefly: biochemical. It is filed as biochemical. Details: Replicate_1 / Replicate_2 / mean / mean (LOPAC_screen_w_protease): unit not given here. Conditions: for inhibition at 5 µM: 4 h.
Setting [1] is: sheet LOPAC_screen_w_protease, primary screen with protease, compound at 5 µM, mean of two replicates.
Setting [2] is: sheet LOPAC_screen_w_protease, primary screen with protease, compound at 5 µM, replicate 1.
Where [3] appears, read: sheet LOPAC_screen_w_protease, primary screen with protease, compound at 5 µM, replicate 2.
Where [4] appears, read: LOPAC1280 primary screen with protease, 5 µM compound, replicate 1, read-out: Replicate_1 (LOPAC_screen_w_protease).
Where [5] appears, read: LOPAC1280 primary screen with protease, 5 µM compound, replicate 2, read-out: Replicate_2 (LOPAC_screen_w_protease).
Where [6] appears, read: LOPAC1280 primary screen with protease, 5 µM compound, mean of the two replicates.
Where [7] appears, read: sheet LOPAC_screen_w_protease, primary screen with protease, mean of two replicates, read-out: mean.
Setting [8] is: sheet LOPAC_screen_w_protease, primary screen with protease, replicate 1, read-out: Replicate_1.
[9] abbreviates: sheet LOPAC_screen_w_protease, primary screen with protease, replicate 2, read-out: Replicate_2.
Where [10] appears, read: LOPAC1280 primary screen with protease, 5 µM compound, mean of two replicates.
[11] abbreviates: LOPAC1280 primary screen with protease, 5 µM compound, replicate 1.
Setting [12] is: LOPAC1280 primary screen with protease, 5 µM compound, replicate 2.
Setting [13] is: sheet LOPAC_screen_w_protease, primary screen with protease, 5 µM, mean of two replicates.
Setting [14] is: sheet LOPAC_screen_w_protease, primary screen with protease, 5 µM, replicate 1.
[15] abbreviates: sheet LOPAC_screen_w_protease, primary screen with protease, 5 µM, replicate 2.

Structures can show the parent of a compound that is named as a salt. Where two headings read alike, the source gives them in different places.

`NC(=O)NO` [Hydroxyurea] yielded a mean under setting [1] of 2.8429. The molecule also showed a Replicate_1 under setting [2] of 4.9936. Moreover, the Replicate_2 under setting [3] was found to be 0.6922.

`NCCS(=O)O` [Hypotaurine]: the inhibition at 5 µM runs as follows: under setting [4], 4.13%; under setting [5], -0.407%. In addition, the “mean (LOPAC_screen_w_protease)” value under setting [6] is reported as 1.861.

Under setting [1], `COc1cc(/C=C(\C#N)C(=O)c2ccc(O)c(O)c2)cc(I)c1O` [I-OMe-Tyrphostin AG 538] gave a mean of 2.606. Besides, under setting [2], the Replicate_1 amounted to 2.231. Moreover, the Replicate_2 under setting [3] was 2.982.

As for `CNC(=O)[C@H]1O[C@@H](n2cnc3c(NCc4cccc(I)c4)ncnc32)[C@H](O)[C@@H]1O` [IB-MECA], the inhibition at 5 µM was found to be 2.39% under setting [7], 2.72% under setting [8] and 2.06% under setting [9].

On to `COc1cc(OC)c(C=C2C(O)=Nc3ccccc32)c(OC)c1` [IC 261], for which the inhibition at 5 µM runs as follows: under setting [4], 1.63%; under setting [5], 1.3%. Further, the “mean (LOPAC_screen_w_protease)” value under setting [10] was determined as 1.465.

Take `Cc1ccc(OCC(O)C(C)NC(C)C)c2c1CCC2.Cl` (centres unmarked) [ICI 118,551 hydrochloride]: the “mean (LOPAC_screen_w_protease)” value under setting [6] was 1.851. For the same molecule, under setting [11], the “Replicate_1 (LOPAC_screen_w_protease)” value amounted to 3.391. Further, the “Replicate_2 (LOPAC_screen_w_protease)” value under setting [12] is given as 0.3114.

For `CN(C(=O)Cc1ccc(Cl)c(Cl)c1)C(CN1CCCC1)c1cccc(OCC(=O)O)c1.Cl` (centres unmarked) [ICI 204,448 hydrochloride], the “mean (LOPAC_screen_w_protease)” value under setting [6] is 1.925. For the same molecule, the “Replicate_1 (LOPAC_screen_w_protease)” value under setting [11] stood at 3.897. The “Replicate_2 (LOPAC_screen_w_protease)” value under setting [12] is on record as -0.04714.

For `Br.C[N+](C)(C)CCCCCNCC12CC3CC(CC(C3)C1)C2.[Br-]` [IEM-1460], the mean under setting [13] was determined as 0.3994. In addition, the Replicate_1 under setting [14] was found to be 0.5263. This molecule displayed a Replicate_2 under setting [15] of 0.2724.

With `CCCC(=O)NCCc1c2n(c3ccc(OC)cc13)Cc1ccccc1-2` [IIK7], where the note is “sheet LOPAC_screen_w_protease, primary screen of LOPAC1280 at 5 µM with protease, mean of the two replicates”, the mean was 3.902. Moreover, the Replicate_1 (sheet LOPAC_screen_w_protease, primary screen of LOPAC1280 at 5 µM with protease, replicate 1) is 5.727. This molecule also registered a Replicate_2 (sheet LOPAC_screen_w_protease, primary screen of LOPAC1280 at 5 µM with protease, replicate 2) of 2.078.

Turning to `Cl.Fc1ccc(CN(C2=NCCN2)c2c(Cl)cccc2Cl)cc1` [IMID-4F hydrochloride], the mean under setting [13] was -0.6347. For the same molecule, the Replicate_1 under setting [14] was -0.8698. In addition, the Replicate_2 under setting [15] is recorded as -0.3997.

`CC(C)C(=O)c1c(C(C)C)nn2ccccc12` [Ibudilast]: the inhibition at 5 µM by setting is: under setting [4], 1.64%; under setting [5], 1.76%. Further, the “mean (LOPAC_screen_w_protease)” value under setting [10] came to 1.697.

In the case of `O=C1NC(c2cccc([N+](=O)[O-])c2)=CCN1c1ccccc1O` [Icilin], the inhibition at 5 µM (sheet LOPAC_screen_w_protease, primary screen of LOPAC1280 at 5 µM with protease, mean of the two replicates, read-out: mean) amounted to 3.88%; the inhibition at 5 µM (sheet LOPAC_screen_w_protease, primary screen of LOPAC1280 at 5 µM with protease, replicate 1, read-out: Replicate_1) amounted to 4.52%; the inhibition at 5 µM (sheet LOPAC_screen_w_protease, primary screen of LOPAC1280 at 5 µM with protease, replicate 2, read-out: Replicate_2) came to 3.25%.

Consider `c1ccc2c(c1)OCC(C1=NCCN1)O2` (centres unmarked) [Idazoxan hydrochloride], for which the inhibition at 5 µM is, setting by setting: (read-out: Replicate_1 (LOPAC_screen_w_protease)) 1.08%; (read-out: Replicate_2 (LOPAC_screen_w_protease)) 2.66%.

Turning to `O=C1CCC(c2ccc(-n3ccnc3)cc2)=NN1` [Imazodan], the inhibition at 5 µM runs as follows: (sheet LOPAC_screen_w_protease, primary screen with protease, 5 µM, mean of two replicates, read-out: mean) -0.683%; (sheet LOPAC_screen_w_protease, primary screen with protease, 5 µM, replicate 1, read-out: Replicate_1) 0.89%; (sheet LOPAC_screen_w_protease, primary screen with protease, 5 µM, replicate 2, read-out: Replicate_2) -2.26%.

As to `N=C(N)SCCc1cnc[nH]1` [Imetit dihydrobromide], the inhibition at 5 µM under setting [7] was 2.25%, the inhibition at 5 µM under setting [8] worked out at 1.12% and the inhibition at 5 µM under setting [9] is 3.38%.

`Cl.O=C(O)Cc1c[nH]cn1` [Imidazole-4-acetic acid hydrochloride] showed a mean (sheet LOPAC_screen_w_protease, LOPAC1280 primary screen at 5 µM, with protease, mean of the two replicates) of 0.8241. This molecule also showed a Replicate_1 (sheet LOPAC_screen_w_protease, LOPAC1280 primary screen at 5 µM, with protease, replicate 1) of 2.255. Further, the Replicate_2 (sheet LOPAC_screen_w_protease, LOPAC1280 primary screen at 5 µM, with protease, replicate 2) is reported as -0.6064.

On to `CCn1ccnc1CC1COc2ccccc2O1` (centres unmarked) [Imiloxan hydrochloride], for which the inhibition at 5 µM is, setting by setting: (sheet LOPAC_screen_w_protease, primary screen with protease, compound at 5 µM, mean of two replicates, read-out: mean) 3.1%; (sheet LOPAC_screen_w_protease, primary screen with protease, compound at 5 µM, replicate 1, read-out: Replicate_1) 4.11%; (sheet LOPAC_screen_w_protease, primary screen with protease, compound at 5 µM, replicate 2, read-out: Replicate_2) 2.09%.

Regarding `CN[C@@H]1C[C@@H](c2ccc(Cl)c(Cl)c2)c2ccccc21` [Indatraline hydrochloride], the inhibition at 5 µM by setting is: under setting [4], 1.51%; under setting [5], 2.53%. Also, the “mean (LOPAC_screen_w_protease)” value under setting [6] came to 2.022.
